Results: patent publication US20180370927A1, “MICROBIOCIDAL OXADIAZOLE DERIVATIVES” (SYNGENTA PARTICIPATIONS AG, priority 2015, published 2018)
Where two headings read alike, the source gives them in different places.

Legend:
[1] = test system: Glomerella lacenarium (Colletotrichum lacenarium); assay: Glomerella lacenarium (Colletotrichum lacenarium) liquid culture / cucumber / preventative (anthracnose); type: cell-based; conditions: read-out: disease control (inhibition of growth, photometric) compared to untreated control
Procedure, shortened: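 Cryostored conidia in potato dextrose broth added to DMSO compound solution in microtiter plates, incubated at 24° C. Growth inhibition read photometrically 3 to 4 days after application, as percent control versus untreated check; compounds tested at 20 ppm.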

[2] = test system: Puccinia recondita f. Sp. Tritici; assay: Puccinia recondita f. sp. tritici / wheat / leaf disc curative (brown rust); type: in vivo; conditions: foliar, read-out: disease control compared to untreated control leaf disks
Procedure, shortened: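 Wheat cv. Kanzler leaf segments on agar were inoculated with spores, kept dark at 19° C, 75% RH, then sprayed with diluted formulated compound 1 day after inoculation (curative). Incubation continued at 19° C, 75% RH, 12 h light/12 h dark, with percent disease control versus untreated scored 6 to 8 days after application.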

[3] = test system: Puccinia recondita f. Sp. Tritici; assay: Puccinia recondita f. sp. tritici / wheat / leaf disc preventative (brown rust); type: in vivo; conditions: foliar, read-out: disease control compared to untreated control leaf disks
Procedure, shortened: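 Wheat cv. Kanzler leaf segments on agar sprayed with formulated compound in water, inoculated with rust spores 1 day later. Incubated at 19° C, 75% rh, 12 h light/12 h dark; percent disease control versus untreated scored 7 to 9 days after application; tested at 200 ppm.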

[4] = test system: Phakopsora pachyrhizi; assay: Phakopsora pachyrhizi / soybean / leaf disc preventative (Asian soybean rust); type: in vivo; conditions: foliar, 200 ppm in the applied formulation, soybean leaf disks, assessed 12 to 14 days after application, read-out: disease control compared to untreated control leaf disks
Procedure, shortened: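 Soybean leaf discs on water agar were sprayed with formulated compound diluted in water, then inoculated one day later with spore suspension on the lower leaf surface. Held 24-36 h dark at 20° C., 75% RH, then 12 h light/day; percent disease control versus untreated scored 12 to 14 days after application.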

[5] = 20 ppm in the applied formulation, liquid culture in PDB, 24° C., 3 to 4 days after application
[6] = 200 ppm in the applied formulation, wheat leaf segments, curative (applied 1 day after inoculation), assessed 6 to 8 days after application
[7] = 200 ppm in the applied formulation, wheat leaf segments, preventative, assessed 7 to 9 days after application

CNC(=O)C(=O)N(Cc1ccc(-c2noc(C(F)(F)F)n2)cc1)OC [Compound 4.35, N′-methoxy-N-methyl-N′-[[4-[5-(trifluoromethyl)-1,2,4-oxadiazol-3-yl]phenyl]methyl] oxamide]
inhibition at 20 ppm [1, 5]: ≥ 80% | pest or weed control at 200 ppm [2, 6]: ≥ 80% | melting point: 87.7 to 88.8 °C | pest or weed control at 200 ppm [3, 7]: ≥ 80% | pest or weed control at 200 ppm [4]: ≥ 80%

O=C(NCc1ccc(-c2noc(C(F)(F)F)n2)cc1)C(=O)OC1CCSC1 (stereo not drawn) [Compound 3.6, tetrahydrothiophen-3-yl 2-oxo-2-[[4-[5-(trifluoromethyl)-1,2,4-oxadiazol-3-yl]phenyl]methylamino]acetate]
inhibition at 20 ppm [1, 5]: ≥ 80% | melting point: 102 to 105 °C | pest or weed control at 200 ppm [3, 7]: ≥ 80%

CCOCCOC(=O)C(=O)NCc1ccc(-c2noc(C(F)(F)F)n2)cc1 [Compound 3.4, 2-ethoxyethyl 2-oxo-2-[[4-[5-(trifluoromethyl)-1,2,4-oxadiazol-3-yl]phenyl]methylamino]acetate]
inhibition at 20 ppm [1, 5]: ≥ 80% | melting point: 112 to 114 °C | pest or weed control at 200 ppm [3, 7]: ≥ 80%

CCOC(=O)C(=O)NCc1ccc(-c2noc(C(F)(F)F)n2)cc1 [Compound 3.9, ethyl 2-oxo-2-[[4-[5-(trifluoromethyl)-1,2,4-oxadiazol-3-yl]phenyl]methylamino] acetate]
inhibition at 20 ppm [1, 5]: ≥ 80% | melting point: 112 to 116 °C | pest or weed control at 200 ppm [3, 7]: ≥ 80% | pest or weed control at 200 ppm [4]: ≥ 80%

O=C(O)C(=O)NCc1ccc(-c2noc(C(F)(F)F)n2)cc1 [Compound 3.8, 2-oxo-2-[[4-[5-(trifluoromethyl)-1,2,4-oxadiazol-3-yl]phenyl]methylamino]acetic acid]
melting point: 162 to 173 °C | pest or weed control at 200 ppm [4]: ≥ 80%

CC1CCC(OC(=O)C(=O)NCc2ccc(-c3noc(C(F)(F)F)n3)cc2)C1 (stereo not drawn) [Compound 3.5, (3-methylcyclopentyl) 2-oxo-2-[[4-[5-(trifluoromethyl)-1,2,4-oxadiazol-3-yl]phenyl]methylamino]acetate]
inhibition at 20 ppm [1, 5]: ≥ 80% | melting point: 112 to 116 °C | pest or weed control at 200 ppm [3, 7]: ≥ 80%

COCCNC(=O)C(=O)Nc1ccc(-c2noc(C(F)(F)F)n2)cc1C [Compound 4.38, N-(2-methoxyethyl)-N′-[2-methyl-4-[5-(trifluoromethyl)-1,2,4-oxadiazol-3-yl]phenyl] oxamide]
inhibition at 20 ppm [1, 5]: ≥ 80% | pest or weed control at 200 ppm [2, 6]: ≥ 80% | melting point: 126 to 130 °C | pest or weed control at 200 ppm [3, 7]: ≥ 80% | pest or weed control at 200 ppm [4]: ≥ 80%

CO/N=C(\C)C(=O)NCc1ccc(-c2noc(C(F)(F)F)n2)cc1 [Compound 2.9, (2E)-2-methoxyimino-N-[[4-[5-(trifluoromethyl)-1,2,4-oxadiazol-3-yl]phenyl]methyl] propanamide]
inhibition at 20 ppm [1, 5]: ≥ 80% | pest or weed control at 200 ppm [2, 6]: ≥ 80% | melting point: 75.7 to 76.2 °C | pest or weed control at 200 ppm [3, 7]: ≥ 80% | pest or weed control at 200 ppm [4]: ≥ 80%

CO/N=C(\C#N)C(=O)N(Cc1ccc(-c2noc(C(F)(F)F)n2)cc1)OC [Compound 2.14, (1E)-N-methoxy-2-[methoxy-[[4-[5-(trifluoromethyl)-1,2,4-oxadiazol-3-yl]phenyl]methyl]amino]-2-oxo-acetimidoyl cyanide]
inhibition at 20 ppm [1]: ≥ 80% | pest or weed control at 200 ppm [2]: ≥ 80% | melting point: 67 to 68 °C | pest or weed control at 200 ppm [3]: ≥ 80%

CC(=O)C(=O)NCc1ccc(-c2noc(C(F)(F)F)n2)cc1 [Compound 1.35, 2-oxo-N-[[4-[5-(trifluoromethyl)-1,2,4-oxadiazol-3-yl]phenyl]methyl]propanamide]
inhibition at 20 ppm [1, 5]: ≥ 80% | pest or weed control at 200 ppm [2, 6]: ≥ 80% | melting point: 75.8 to 77.5 °C | pest or weed control at 200 ppm [3, 7]: ≥ 80% | pest or weed control at 200 ppm [4]: ≥ 80%

CO/N=C(\C#N)C(=O)NCc1ccc(-c2noc(C(F)(F)F)n2)cc1 [Compound 2.13, (1E)-N-methoxy-2-oxo-2-[[4-[5-(trifluoromethyl)-1,2,4-oxadiazol-3-yl]phenyl]methylamino] acetimidoyl cyanide]
inhibition at 20 ppm [1]: ≥ 80% | melting point: 130 to 131 °C

CN(Cc1ccc(-c2noc(C(F)(F)F)n2)cc1)C(=O)C(N)=O [Compound 4.30, N′-methyl-N′-[[4-[5-(trifluoromethyl)-1,2,4-oxadiazol-3-yl]phenyl]methyl] oxamide]
inhibition at 20 ppm [1, 5]: ≥ 80% | pest or weed control at 200 ppm [2, 6]: ≥ 80% | melting point: 120 to 125 °C | pest or weed control at 200 ppm [3, 7]: ≥ 80% | pest or weed control at 200 ppm [4]: ≥ 80%

CC(C)CC(=O)C(=O)NCc1ccc(-c2noc(C(F)(F)F)n2)cc1 [Compound 1.50, 4-methyl-2-oxo-N-[[4-[5-(trifluoromethyl)-1,2,4-oxadiazol-3-yl]phenyl]methyl]pentanamide]
inhibition at 20 ppm [1, 5]: ≥ 80% | pest or weed control at 200 ppm [2, 6]: ≥ 80% | pest or weed control at 200 ppm [3, 7]: ≥ 80% | pest or weed control at 200 ppm [4]: ≥ 80%

CCCN(Cc1ccc(-c2noc(C(F)(F)F)n2)cc1)C(=O)C(=O)CC [Compound 1.31, 2-oxo-N-propyl-N-[[4-[5-(trifluoromethyl)-1,2,4-oxadiazol-3-yl]phenyl]methyl]butanamide]
inhibition at 20 ppm [1, 5]: ≥ 80% | pest or weed control at 200 ppm [2, 6]: ≥ 80% | pest or weed control at 200 ppm [3, 7]: ≥ 80% | pest or weed control at 200 ppm [4]: ≥ 80%

CN(C(=O)C(=O)NCc1ccc(-c2noc(C(F)(F)F)n2)cc1)C1CCOC1 (stereo not drawn) [Compound 4.41, N′-methyl-N′-tetrahydrofuran-3-yl-N-[[4-[5-(trifluoromethyl)-1,2,4-oxadiazol-3-yl]phenyl]methyl] oxamide]
inhibition at 20 ppm [1, 5]: ≥ 80% | pest or weed control at 200 ppm [2, 6]: ≥ 80% | pest or weed control at 200 ppm [3, 7]: ≥ 80% | pest or weed control at 200 ppm [4]: ≥ 80%

CCCN(Cc1ccc(-c2noc(C(F)(F)F)n2)cc1)C(=O)C(N)=O [Compound 4.88, N′-propyl-N′-[[4-[5-(trifluoromethyl)-1,2,4-oxadiazol-3-yl]phenyl]methyl] oxamide]
inhibition at 20 ppm [1, 5]: ≥ 80% | pest or weed control at 200 ppm [2, 6]: ≥ 80% | pest or weed control at 200 ppm [3, 7]: ≥ 80% | pest or weed control at 200 ppm [4]: ≥ 80%

CCON(Cc1ccc(-c2noc(C(F)(F)F)n2)cc1)C(=O)C(=O)CC [Compound 1.29, N-ethoxy-2-oxo-N-[[4-[5-(trifluoromethyl)-1,2,4-oxadiazol-3-yl]phenyl]methyl]butanamide]
inhibition at 20 ppm [1, 5]: ≥ 80% | pest or weed control at 200 ppm [2, 6]: ≥ 80% | pest or weed control at 200 ppm [3, 7]: ≥ 80% | pest or weed control at 200 ppm [4]: ≥ 80%

CCN(Cc1ccc(-c2noc(C(F)(F)F)n2)cc1)C(=O)C(=O)NC [Compound 4.101, N′-ethyl-N-methyl-N′-[[4-[5-(trifluoromethyl)-1,2,4-oxadiazol-3-yl]phenyl]methyl] oxamide]
inhibition at 20 ppm [1, 5]: ≥ 80% | pest or weed control at 200 ppm [2, 6]: ≥ 80% | pest or weed control at 200 ppm [3, 7]: ≥ 80% | pest or weed control at 200 ppm [4]: ≥ 80%

CC(=O)C(=O)N(Cc1ccc(-c2noc(C(F)(F)F)n2)cc1)C1CC1 [Compound 1.91, N-cyclopropyl-2-oxo-N-[[4-[5-(trifluoromethyl)-1,2,4-oxadiazol-3-yl]phenyl]methyl]propanamide]
inhibition at 20 ppm [1, 5]: ≥ 80% | pest or weed control at 200 ppm [2, 6]: ≥ 80% | pest or weed control at 200 ppm [3, 7]: ≥ 80% | pest or weed control at 200 ppm [4]: ≥ 80%

CON(Cc1ccc(-c2noc(C(F)(F)F)n2)cc1)C(=O)C(=O)c1ccco1 [Compound 1.90, 2-(2-furyl)-N-methoxy-2-oxo-N-[[4-[5-(trifluoromethyl)-1,2,4-oxadiazol-3-yl]phenyl]methyl]acetamide]
inhibition at 20 ppm [1, 5]: ≥ 80% | pest or weed control at 200 ppm [2, 6]: ≥ 80% | pest or weed control at 200 ppm [3, 7]: ≥ 80% | pest or weed control at 200 ppm [4]: ≥ 80%

C=CCNC(=O)C(=O)N(Cc1ccc(-c2noc(C(F)(F)F)n2)cc1)OC [Compound 4.76, N-allyl-N′-methoxy-N′-[[4-[5-(trifluoromethyl)-1,2,4-oxadiazol-3-yl]phenyl]methyl] oxamide]
inhibition at 20 ppm [1, 5]: ≥ 80% | pest or weed control at 200 ppm [2, 6]: ≥ 80% | pest or weed control at 200 ppm [3, 7]: ≥ 80% | pest or weed control at 200 ppm [4]: ≥ 80%

CCONC(=O)C(=O)NCc1ccc(-c2noc(C(F)(F)F)n2)cc1 [Compound 4.55, N′-ethoxy-N-[[4-[5-(trifluoromethyl)-1,2,4-oxadiazol-3-yl]phenyl]methyl] oxamide]
inhibition at 20 ppm [1, 5]: ≥ 80% | pest or weed control at 200 ppm [2, 6]: ≥ 80% | pest or weed control at 200 ppm [3, 7]: ≥ 80% | pest or weed control at 200 ppm [4]: ≥ 80%

CCN(CC)C(=O)C(=O)N(Cc1ccc(-c2noc(C(F)(F)F)n2)cc1)OC [Compound 4.69, N,N-diethyl-N′-methoxy-N′-[[4-[5-(trifluoromethyl)-1,2,4-oxadiazol-3-yl]phenyl]methyl] oxamide]
inhibition at 20 ppm [1, 5]: ≥ 80% | pest or weed control at 200 ppm [2, 6]: ≥ 80% | pest or weed control at 200 ppm [3, 7]: ≥ 80% | pest or weed control at 200 ppm [4]: ≥ 80%
